ChEMBL document CHEMBL5223162, “Discovery of Pyrazolopyridine Derivatives as HPK1 Inhibitors” (ACS Med Chem Lett, 2023)

What was measured:
[1] = target: T1, Mitogen-activated protein kinase kinase kinase kinase 1 (Homo sapiens, UniProt Q92918); test: Inhibition of human HPK1 in human Jurkat cells assessed as reduction in SLP76 phosphorylation incubated for 1 hr by HTRF assay; type: cell-based
[2] = Intrinsic clearance in human liver microsomes at 1 uM and measured upto 30 mins in presence of NADPH by LC-MS analysis; type: ADME, Microsome; details: read-out: CLH (converted)
[3] = target: T1, Mitogen-activated protein kinase kinase kinase kinase 1; test: Binding affinity to recombinant human HPK1 (1 to 346 residues) expressed sf9 cells incubated for 1 hr by LanthaScreen assay
[4] = Clearance in Sprague-Dawley rat at 1.5 mg/kg, iv and measured upto 24 hrs by LC-MS/MS analysis; type: ADME, organism-based; details: in vivo
[5] = Permeability across apical to basolateral side in human Caco2 cells at 50 uM and measured after 120 mins by LC-MS analysis; type: ADME, cell-based; details: Caco-2, read-out: permeability
[6] = target: T2, Cytochrome P450 3A4 (Homo sapiens, UniProt P08684); test: Inhibition of CYP3A4 in human liver microsomes using testosterone as substrate by LC-MS analysis; type: ADME, Microsome
T2 sequence (P08684 whole entry): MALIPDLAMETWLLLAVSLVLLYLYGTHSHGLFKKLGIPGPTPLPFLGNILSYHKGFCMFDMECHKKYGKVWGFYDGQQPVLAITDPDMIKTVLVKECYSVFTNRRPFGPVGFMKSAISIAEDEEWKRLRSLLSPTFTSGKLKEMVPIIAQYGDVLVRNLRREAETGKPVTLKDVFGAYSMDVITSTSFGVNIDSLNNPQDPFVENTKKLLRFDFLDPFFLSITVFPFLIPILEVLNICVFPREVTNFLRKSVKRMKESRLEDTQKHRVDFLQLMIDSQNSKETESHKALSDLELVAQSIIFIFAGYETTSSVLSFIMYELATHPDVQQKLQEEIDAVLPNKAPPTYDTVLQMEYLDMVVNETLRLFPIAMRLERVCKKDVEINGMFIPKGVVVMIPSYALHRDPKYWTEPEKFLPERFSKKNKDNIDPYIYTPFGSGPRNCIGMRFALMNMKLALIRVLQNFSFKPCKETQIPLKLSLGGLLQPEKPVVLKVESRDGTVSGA

[7] = Fraction unbound in human plasma by LC-MS/MS analysis; type: ADME, cell-free
[8] = Volume of distribution at steady state in cynomolgus monkey at 1 mg/kg, iv and measured upto 24 hrs by LC-MS/MS analysis; type: ADME, organism-based, Macaca fascicularis; details: in vivo
[9] = Half life in cynomolgus monkey at 1 mg/kg, iv and measured upto 24 hrs by LC-MS/MS analysis; type: ADME, organism-based, Macaca fascicularis; details: in vivo
[10] = AUC in Sprague-Dawley rat at 3 mg/kg, po and measured upto 24 hrs by LC-MS/MS analysis; type: ADME, organism-based; design: dose 3 mg/kg, time < 24 hrs, route po; details: in vivo
[11] = target: Cytochrome P450 2C19 (Homo sapiens, UniProt P33261); test: Time dependent inhibition of CYP2C19 in human liver microsomes using S mephenytoin as substrate by LC-MS analysis; type: ADME, Microsome; details: TDE = time-dependent effect
Cytochrome P450 2C19, sequence (P33261 whole entry): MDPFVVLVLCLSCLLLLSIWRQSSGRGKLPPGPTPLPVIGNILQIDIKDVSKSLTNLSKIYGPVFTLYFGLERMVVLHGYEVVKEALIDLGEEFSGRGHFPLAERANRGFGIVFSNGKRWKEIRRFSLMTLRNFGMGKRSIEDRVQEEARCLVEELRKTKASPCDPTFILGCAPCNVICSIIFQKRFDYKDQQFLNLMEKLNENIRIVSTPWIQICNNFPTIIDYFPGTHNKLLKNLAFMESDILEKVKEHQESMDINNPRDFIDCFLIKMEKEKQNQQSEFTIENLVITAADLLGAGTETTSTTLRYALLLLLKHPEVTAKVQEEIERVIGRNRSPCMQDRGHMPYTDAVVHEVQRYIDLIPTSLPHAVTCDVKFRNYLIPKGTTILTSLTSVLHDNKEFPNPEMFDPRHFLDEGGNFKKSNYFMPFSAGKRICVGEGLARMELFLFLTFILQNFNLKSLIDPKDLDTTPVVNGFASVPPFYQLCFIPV

[12] = target: Mast/stem cell growth factor receptor Kit (Homo sapiens, UniProt P10721); test: Inhibition of KIT (unknown origin) in presence of ATP
Mast/stem cell growth factor receptor Kit, sequence (P10721 whole entry): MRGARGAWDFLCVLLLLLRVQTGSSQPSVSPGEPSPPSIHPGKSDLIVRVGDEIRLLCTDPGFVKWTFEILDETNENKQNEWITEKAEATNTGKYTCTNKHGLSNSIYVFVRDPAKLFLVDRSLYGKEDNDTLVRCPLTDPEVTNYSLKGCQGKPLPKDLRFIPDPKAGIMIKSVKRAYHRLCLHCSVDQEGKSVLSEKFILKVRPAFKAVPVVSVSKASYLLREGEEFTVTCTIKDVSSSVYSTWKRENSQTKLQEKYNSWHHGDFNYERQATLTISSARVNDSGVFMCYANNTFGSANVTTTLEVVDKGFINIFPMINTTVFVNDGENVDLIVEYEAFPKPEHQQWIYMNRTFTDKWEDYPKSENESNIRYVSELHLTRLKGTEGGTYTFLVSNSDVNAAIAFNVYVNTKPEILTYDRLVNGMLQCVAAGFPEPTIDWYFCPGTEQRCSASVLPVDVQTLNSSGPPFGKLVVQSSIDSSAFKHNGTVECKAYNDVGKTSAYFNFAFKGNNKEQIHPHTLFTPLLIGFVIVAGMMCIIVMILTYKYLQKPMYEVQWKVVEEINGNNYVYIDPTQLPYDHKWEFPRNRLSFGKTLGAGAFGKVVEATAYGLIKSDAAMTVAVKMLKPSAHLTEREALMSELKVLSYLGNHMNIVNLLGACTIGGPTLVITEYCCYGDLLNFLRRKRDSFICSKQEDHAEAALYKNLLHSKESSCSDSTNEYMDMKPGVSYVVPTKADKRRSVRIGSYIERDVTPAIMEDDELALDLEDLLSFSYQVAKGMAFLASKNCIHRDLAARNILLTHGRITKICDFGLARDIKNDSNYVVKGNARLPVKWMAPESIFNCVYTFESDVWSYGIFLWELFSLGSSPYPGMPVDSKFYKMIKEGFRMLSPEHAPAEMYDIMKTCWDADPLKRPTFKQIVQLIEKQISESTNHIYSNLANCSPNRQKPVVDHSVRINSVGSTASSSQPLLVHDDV

[13] = AUC in cynomolgus monkey at 3 mg/kg, po and measured upto 24 hrs by LC-MS/MS analysis; type: ADME, organism-based, Macaca fascicularis; design: dose 3 mg/kg, time < 24 hrs, route po; details: in vivo
[14] = target: T3, Receptor-type tyrosine-protein kinase FLT3 (Homo sapiens, UniProt P36888); test: Inhibition of FLT3 (unknown origin) in presence of ATP
T3 sequence (P36888 whole entry): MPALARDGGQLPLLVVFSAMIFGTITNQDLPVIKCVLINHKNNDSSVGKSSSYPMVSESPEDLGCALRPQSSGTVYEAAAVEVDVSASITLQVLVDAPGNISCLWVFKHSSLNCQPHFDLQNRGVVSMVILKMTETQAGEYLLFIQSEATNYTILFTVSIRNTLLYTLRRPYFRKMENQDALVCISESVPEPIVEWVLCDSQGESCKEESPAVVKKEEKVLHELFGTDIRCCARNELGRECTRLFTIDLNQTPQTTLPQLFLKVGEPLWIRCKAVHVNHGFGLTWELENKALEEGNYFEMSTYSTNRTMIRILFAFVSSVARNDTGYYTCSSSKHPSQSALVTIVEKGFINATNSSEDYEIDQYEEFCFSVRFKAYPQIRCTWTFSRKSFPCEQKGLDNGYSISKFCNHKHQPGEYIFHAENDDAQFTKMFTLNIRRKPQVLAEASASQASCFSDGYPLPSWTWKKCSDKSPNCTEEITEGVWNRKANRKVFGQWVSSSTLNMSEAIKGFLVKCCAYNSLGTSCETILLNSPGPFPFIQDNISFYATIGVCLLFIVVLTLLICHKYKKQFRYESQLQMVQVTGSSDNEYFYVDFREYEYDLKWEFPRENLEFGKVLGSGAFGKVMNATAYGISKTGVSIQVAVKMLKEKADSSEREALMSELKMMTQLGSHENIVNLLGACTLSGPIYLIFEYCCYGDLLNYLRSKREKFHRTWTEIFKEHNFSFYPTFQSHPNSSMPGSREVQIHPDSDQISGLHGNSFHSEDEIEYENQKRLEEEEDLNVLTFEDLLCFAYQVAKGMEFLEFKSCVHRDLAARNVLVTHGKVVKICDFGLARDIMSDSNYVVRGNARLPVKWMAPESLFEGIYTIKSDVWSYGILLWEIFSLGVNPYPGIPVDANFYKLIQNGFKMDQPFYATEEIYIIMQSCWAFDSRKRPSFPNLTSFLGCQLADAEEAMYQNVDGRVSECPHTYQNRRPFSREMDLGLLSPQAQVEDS

[15] = target: T2, Cytochrome P450 3A4; test: Inhibition of CYP3A4 in human liver microsomes using midazolam as substrate by LC-MS analysis; type: ADME, Microsome
[16] = Clearance in cynomolgus monkey at 1 mg/kg, iv and measured upto 24 hrs by LC-MS/MS analysis; type: ADME, organism-based, Macaca fascicularis; details: in vivo
[17] = Oral bioavailability in cynomolgus monkey at 3 mg/kg and measured upto 24 hrs by LC-MS/MS analysis; type: ADME, organism-based, Macaca fascicularis; details: in vivo

T1 sequence (Q92918 whole entry): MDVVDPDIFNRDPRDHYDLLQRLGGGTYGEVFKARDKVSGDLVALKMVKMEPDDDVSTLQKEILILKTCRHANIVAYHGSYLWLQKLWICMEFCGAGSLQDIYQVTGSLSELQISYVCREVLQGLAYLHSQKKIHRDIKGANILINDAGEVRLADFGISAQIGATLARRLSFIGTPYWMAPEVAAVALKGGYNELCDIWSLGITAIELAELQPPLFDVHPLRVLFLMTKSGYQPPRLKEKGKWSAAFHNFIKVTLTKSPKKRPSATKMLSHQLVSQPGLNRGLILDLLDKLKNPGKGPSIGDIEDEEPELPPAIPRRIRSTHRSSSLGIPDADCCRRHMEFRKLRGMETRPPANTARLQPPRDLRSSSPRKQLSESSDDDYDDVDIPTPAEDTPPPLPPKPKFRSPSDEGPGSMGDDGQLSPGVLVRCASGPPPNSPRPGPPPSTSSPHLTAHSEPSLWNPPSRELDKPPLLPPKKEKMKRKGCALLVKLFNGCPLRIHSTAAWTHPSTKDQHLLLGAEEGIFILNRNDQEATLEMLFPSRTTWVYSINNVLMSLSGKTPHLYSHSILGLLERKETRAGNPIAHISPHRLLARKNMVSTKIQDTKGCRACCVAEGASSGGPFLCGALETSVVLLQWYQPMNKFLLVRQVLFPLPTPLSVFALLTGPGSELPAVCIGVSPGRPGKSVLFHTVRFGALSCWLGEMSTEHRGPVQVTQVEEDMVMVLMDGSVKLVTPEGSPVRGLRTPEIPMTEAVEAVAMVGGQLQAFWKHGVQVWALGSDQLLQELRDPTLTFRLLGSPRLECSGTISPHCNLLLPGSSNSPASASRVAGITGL

| IC50 [1] [nM] | CLint scaled at 1 µM [2] [mL/min/kg] | Ki [3] [nM] | Papp A→B at 2 h, 50 µM [5] [×10⁻⁶ cm/s] | SMILES | also measured |
| --- | --- | --- | --- | --- | --- |
| 395 | > 18.3 | 3 | – | COc1cccc(F)c1-c1ccc2[nH]nc(-c3ccc(N4CCN(C)CC4)cc3)c2n1 | – |
| 258 | > 18.3 | 2.5 | – | COc1cccc(F)c1-c1ncc2[nH]nc(-c3ccc(N4CCN(C)CC4)cc3)c2n1 | – |
| 91 | < 8.33 | 2.7 | 1.1 | CNCc1cc(C)c(-c2cc3c(-c4cnn(C)c4)n[nH]c3cn2)c(F)c1 | clearance [4]: 118 mL/min/kg; IC50 [6]: > 25000 nM; fraction unbound [7]: 0.41; Vdss [8]: 4.6 L/kg; half-life [9]: 5.5 h; AUC at 24 h [10]: 0.456 µM·h; inhibition (INH) [11]: Tde; IC50 [12]: 7470 nM; AUC at 24 h [13]: 0.759 µM·h; IC50 [14]: 1510 nM; IC50 [15]: > 25000 nM; clearance [16]: 20 mL/min/kg; bioavailability [17]: 7% |
| – | – | 492 | – | CN1CCN(c2ccc(Nc3ncc4ccc(-c5ccccc5)cc4n3)cc2)CC1 | – |
| 94 | < 8.33 | 4 | 0.2 | CNC(C)c1cc(C)c(-c2cc3c(-c4cnn(C)c4)n[nH]c3cn2)c(F)c1 (configuration not stated) | clearance [4]: 93.3 mL/min/kg; fraction unbound [7]: 0.49; Vdss [8]: 7.6 L/kg; half-life [9]: 8.6 h; AUC at 24 h [10]: 0.799 µM·h; AUC at 24 h [13]: 3.93 µM·h; clearance [16]: 18.3 mL/min/kg; bioavailability [17]: 50% |
| – | – | 223 | – | CN1CCN(c2ccc(-c3n[nH]c4ccc(-c5ccccc5)nc34)cc2)CC1 | – |
| 117 | < 8.33 | 5.4 | 0.7 | CNCc1cc(F)c(-c2cc3c(-c4cnn(C)c4)n[nH]c3cn2)c(F)c1 | IC50 [6]: > 25000 nM; IC50 [12]: 1080 nM; IC50 [14]: 366 nM; IC50 [15]: > 25000 nM |
| 148 | 13.3 | 2 | – | COc1cccc(F)c1-c1cc2c(-c3cnn(C)c3)n[nH]c2cn1 | – |
| 219 | < 8.33 | 3 | 0.2 | CNCc1cc(F)c(-c2cc3c(-c4cnn(C)c4)n[nH]c3cn2)c(OC)c1 | IC50 [12]: 857 nM; IC50 [14]: 260 nM |
| – | – | 1150 | – | CN1CCN(c2ccc(-c3n[nH]c4cc(-c5ccccc5)cnc34)cc2)CC1 | – |
| 2740 | – | 28 | – | CN1CCN(c2ccc(-c3n[nH]c4ccc(-c5ccccc5F)nc34)cc2)CC1 | – |
| 144 | 18.3 | < 1 | – | COc1cccc(F)c1-c1cc2c(-c3ccc(N4CCN(C)CC4)cc3)n[nH]c2cn1 | – |
| 138 | < 8.33 | 4.6 | 0.4 | Cc1cc(C2CCCCN2)cc(F)c1-c1cc2c(-c3cnn(C)c3)n[nH]c2cn1 (configuration not stated) | clearance [4]: 80 mL/min/kg; fraction unbound [7]: 0.5; Vdss [8]: 4.6 L/kg; half-life [9]: 8.9 h; AUC at 24 h [10]: 1.46 µM·h; AUC at 24 h [13]: 7.84 µM·h; clearance [16]: 9 mL/min/kg; bioavailability [17]: 55% |
| – | – | 91 | – | COc1cc(OC)c(F)c(-c2ncc3c(-c4ccc(N5CCN(C)CC5)cc4)n[nH]c3n2)c1F | – |
| 128 | < 8.33 | 3.5 | 1.6 | CNCc1cc(F)c(-c2cc3c(-c4cnn(C)c4)n[nH]c3cn2)c(C(F)(F)F)c1 | IC50 [6]: > 25000 nM; inhibition (INH) [11]: Tde; IC50 [12]: 1980 nM; IC50 [14]: 2230 nM; IC50 [15]: > 25000 nM |
| 137 | < 8.33 | 5 | 1.4 | CCNCc1cc(C)c(-c2cc3c(-c4cnn(C)c4)n[nH]c3cn2)c(F)c1 | clearance [4]: 102 mL/min/kg; fraction unbound [7]: 0.61; Vdss [8]: 3.9 L/kg; half-life [9]: 6.3 h; AUC at 24 h [10]: 0.761 µM·h; AUC at 24 h [13]: 1.64 µM·h; clearance [16]: 11 mL/min/kg; bioavailability [17]: 16% |
| 640 | 11.7 | 12 | – | COc1cccc(F)c1-c1ncc2[nH]nc(-c3cnn(C)c3)c2n1 | – |
